Results reported in US8491938B2, “Potent inhibitory effect of zinc in combination with sulforaphane on cancer cell growth” (University of Maryland, Baltimore, priority 2009, dated 2013).
Like-named read-outs stand apart in the source and are kept apart here.

Experiments:
Assay type in all cases: cell-based, human
PC-3 cells [1] = assay: MTT cell viability assay, PC-3 cells; conditions: for IC50: PC-3 cells, single agent, read-out: 50% inhibitory concentration (IC50); for IC50 / effect on growth inhibitory effect of zinc, SFN and their combination: MTT; for effect on growth inhibitory effect of zinc, SFN and their combination: PC-3, inhibitor 6 mM pretreatment
Protocol: Two human prostatic cell lines were used: a) HPR-1, a cell line derived from normal human prostate epithelial cells (kindly provided by Dr. C. K. Choo, University of Hong Kong, Hong Kong, China); and b) PC-3, a human malignant prostate cell line (ATCC, Rockville, Md.). HPR-1 cells were cultured in keratinocyte medium supplemented with epidermal growth factor (EGF) ([…]) and bovine pituitary extracts (25 mg/500 ml) (Gibco BRL, Life Technologies, Bethesda, Md.). PC-3 cells were cultured in RPMI-1640 medium with 5% or 10% of fetal bovine serum (FBS), respectively. All media were supplemented with penicillin/streptomycin (1 U/ml, Invitrogen), and the cells were maintained at 37° C. in a humidified incubator with 5% CO2. The passages of the cell lines were within the range of 5-40. Once the cell density reached 50-60% confluence, the growth media were replaced by fresh serum/supplement-free medium for 24 h to synchronize cell growth. The cells were then treated with or without zinc sulfate (concentrations as indicated in the legends) in fresh serum/supplement-free medium for 0, 1, 3, 6, 12, and 24 h, respectively.
(§1) Cell viability and proliferation were evaluated with the MTT assay. The cells were seeded at a density of 9×10^3 cells/well in a 96 well plate containing 100 μl culture medium/well. After attachment, cells were treated with or without zinc and/or SFN at various concentrations in serum/supplement free medium. After 24 h treatment, 10 μl MTT (5 mg/ml, sigma) was added into each well and incubated at 37° C. for 1 h. Then the medium was removed and 100 μl dimethyl sulfoxide (DMSO) was added to dissolve water-insoluble formazan crystals converted from water-soluble MTT by living cells. The color absorbency of formazan was detected at a wavelength of 540 nm using a microplate reader (Molecular Devices).
[formula] experiments were designed by a statistics-based method utilizing the maximal power design developed by Fang and Tan(2003, 2008) and the corresponding SynStat version 1.beta software (http://www.umgcc.org/research/biostat_software.htm), This method uses uniform measures maximizes the minimum power of the F-test to detect departures from the additive action of drugs. […] With the information from experiments of single agents, SynStat derived 21 mixtures of the two agents and 6 replicates at each mixture based on the pooled variations in single agent experiments, which have 80% statistical power to detect at least a 15% difference in viability between the predicted additive values and the observed values at a significance level of 5%. Then, cells are exposed to these 21 mixtures and the cytotoxicity of this combination is determined. Upon completion of the experiments, we use the F-statistic given by Tan et al. (2003) to test the hypothesis of the additive action of two agents and calculate the p-value of the F-test. If the p-value is greater than 0.05, we can accept the hypothesis of the additive action of two agents. Otherwise, we calculate the interaction index (τ), which is proposed by Berenbaum who adopted the Lowe additivity model (Berenbaum, 1977) where, for a given cytotoxic effect, xA and xB are the concentrations of zinc and SFN in the combination, and XA and XB are the concentrations of zinc and SFN respectively that achieve the same cytotoxic effect when given alone. A τ value of 1 indicates additivity; τ<1 indicates synergy, and τ>1 indicates antagonism.

HPR-1 cells = assay: MTT cell viability assay, HPR-1 cells
Protocol: as §1, with “Two human prostatic cell lines were used: a) HPR-1, a cell line derived from normal human prostate epithelial cells (kindly provided by Dr. C. K. Choo, University of Hong Kong, Hong Kong, China); and b) PC-3, a human malignant prostate cell line (ATCC, Rockville, Md.). HPR-1 cells were cultured in keratinocyte medium supplemented with epidermal growth factor (EGF) ([…]) and bovine pituitary extracts (25 mg/500 ml) (Gibco BRL, Life Technologies, Bethesda, Md.). […] The passages of the cell lines were within the range of 5-40. […] Cell” for “Cell”

[2] = tested on: cytochrome c, pro-caspase 3 and PARP; assay: Western blot of apoptosis proteins in PC-3 cells; conditions: PC-3, zinc 12.5 μM or SFN 12 μM alone, 24 h
Protocol: Total cellular proteins from the experimental samples were extracted by radioimmuno-precipitation assay (RIPA) lysis buffer (Upstate, Lake Placid, N.Y.) containing protease inhibitor (Roche Diagnostics Gmbh, Mannheim, Germany). The protein extracts (30 μg/lane) were applied to electrophoresis on an SDS-polyacrylamide gel, and then, a transferred poly(vinylidene fluoride) (PVDF) membrane (Millipore, Billerica, Mass.) was blocked in 5% nonfat dry milk in phosphate buffered saline (PBS) containing 0.05% Tween-20 (Sigma, St. Louis, Mo.) (PBST) for 1 hr at room temperature followed by the hybridization to the primary antibodies against PARP (BD pharmingen, San Jose, Calif.), caspase 3 (BD pharmingen, San Jose, Calif.), p-JNK and JNK1 (Santa Cruz, Calif.), pP38 and P38 (Cell Signaling Technology, Danvers, Mass.), ppERK1/2 (Sigma, St. Louis, Mo.), ERK1/2 (Cell Signaling Technology, Danvers, Mass.) at 4° C. overnight. After washing, the membranes were incubated with corresponding second antibodies. Beta-actin (Sigma, St. Louis, Mo.) and GAPDH (Cell Signaling Technology, Danvers, Mass.) were used as internal controls to monitor the sample loadings. […] The signals of targeted bands were scanned and quantified with an LKB Ultra Scan XL laser densitometer (Image Quant, Molecular Dynamics, Sunnyvale, Calif.). […]

PC-3 cells [3] = assay: ROS detection (carboxy-H2DCFDA, flow cytometry) in PC-3 cells; conditions: for increase of ROS levels: PC-3, SFN alone; for effect on ROS production induced by zinc, SFN or zinc/SFN combination / effect on surge of ROS induced by zinc/SFN combination: PC-3, inhibitor 6 mM; for effect on ROS production induced by zinc, SFN or zinc/SFN combination: 30 min pretreatment, 6 h and 24 h; for effect on surge of ROS induced by zinc/SFN combination: 24 h of treatment
Protocol: 5-(and-6)-carboxy-2 ′,7 ′-dichlorodihydrofluorescein diacetate (carboxy-H2DCFDA,) was used to determine the intracellular ROS levels of individual cells. In living cells, this compound is oxidized and converted to the 2′,7′-dichlorofluoroscein (DCF) that is highly fluorescent. In the experiments, PC-3 cells cultured on 12-well plates were incubated in serum-free medium containing zinc sulfate ([…])/SFN (12 μM). Thirty min prior to the completion of the time course, carboxy-H2DCFDA was added at a final concentration of 5 μM. Cells were then collected and washed once with PBS. The fluorescent intensity of DCF was assayed by FACScan (Becton Dickinson)[3].

PC-3 cells [4] = assay: Mitochondrial membrane potential (MMP) detection, DiOC6(3)/PI flow cytometry, PC-3 cells; conditions: for effect on MMP versus control, single agent: PC-3, zinc alone or SFN 12 μM alone; for effect on MMP alteration induced by zinc/SFN: PC-3, pretreatment 30 min, treatment 24 h
Text: Cell flow cytometric analysis with 3,3′-dihexyloxacarbocyanine iodide (DiOC6(3); Invitrogen, Carlsbad, Calif.) and propidium iodide (PI;BD Pharmingen, San Jose, Calif.) was used to evaluate MMP and apoptosis of the cells. The fluorescence dye DiOC6(3) is featured by its accumulation in the mitochondrial matrix, which is resulted from negative mitochondrial membrane potential within viable cells. Thus, the changes of fluorescence of DiOC6(3) reflect the MMP alteration of the cells. Another fluorescence dye PI is cell membrane impermeable and able to stain DNA once cell membrane integrity is damaged during apoptosis. In the experiments, after treatments, cells (2.5×10^5/ml) were incubated with 100 nM DiOC6(3) in PBS for 15 min at 37° C. Then the cells were washed in PBS once, followed by incubation with 2.5 μg/ml PI for additional 10 min at room temperature. The samples were subjected to cell flow cytometric analysis, and FACScan (Becton Dickinson) was used to analyze the fluorescence of DIOC6(3) and PI [2].

MT1/2 [5] = assay: Western blot of MT1/2 expression in PC-3 cells; conditions: zinc at 24 h, SFN and combination at 6 and 24 h
Protocol: (§2) Total cellular proteins from the experimental samples were extracted by radioimmuno-precipitation assay (RIPA) lysis buffer (Upstate, Lake Placid, N.Y.) containing protease inhibitor (Roche Diagnostics Gmbh, Mannheim, Germany). The protein extracts (30 μg/lane) were applied to electrophoresis on an SDS-polyacrylamide gel, and then, a transferred poly(vinylidene fluoride) (PVDF) membrane (Millipore, Billerica, Mass.) was blocked in 5% nonfat dry milk in phosphate buffered saline (PBS) containing 0.05% Tween-20 (Sigma, St. Louis, Mo.) (PBST) for 1 hr at room temperature followed by the hybridization to the primary antibodies against PARP (BD pharmingen, San Jose, Calif.), caspase 3 (BD pharmingen, San Jose, Calif.), p-JNK and JNK1 (Santa Cruz, Calif.), pP38 and P38 (Cell Signaling Technology, Danvers, Mass.), ppERK1/2 (Sigma, St. Louis, Mo.), ERK1/2 (Cell Signaling Technology, Danvers, Mass.) at 4° C. overnight. After washing, the membranes were incubated with corresponding second antibodies. Beta-actin (Sigma, St. Louis, Mo.) and GAPDH (Cell Signaling Technology, Danvers, Mass.) were used as internal controls to monitor the sample loadings. […] The signals of targeted bands were scanned and quantified with an LKB Ultra Scan XL laser densitometer (Image Quant, Molecular Dynamics, Sunnyvale, Calif.).

MT1/2 [6] = assay: Western blot of MT1/2 expression in HPR-1 cells; conditions: zinc at 24 h, SFN at 6 h and 24 h
Protocol: as §2

p38 = assay: Western blot of p38 activation in PC-3 cells; conditions: PC-3, 6 h treatment, versus control
Protocol: as §2

For C[S+]([O-])CCCCN=C=S (centres unmarked) [SFN, 1-Isothiocyanato-4-methylsulfinylbutane], the IC50 (PC-3 cells [1]; Homo sapiens, 24 h) was 20.3 ± 0.8 µM, the “HPR-1 cells still alive (plateau)” value (HPR-1 cells; SFN 25 μM and even higher, 24 h) was 60% and the “response of HPR-1 cells to lower concentration of SFN” value (HPR-1 cells; SFN <10 μM, 24 h) was “no response”. The “proliferation of HPR-1 cells” value (HPR-1 cells; SFN at the range of 10 to 25, 24 h, less effective than in PC-3 cells) was “inhibited in a dose-dependent pattern”, the “apoptotic effect (cytochrome c, pro-caspase 3, PARP), single agent” value [2] was “lack of cell responses” and the “increase of ROS levels” value (PC-3 cells [3]; late time points (12 to 24 h), first value) was “about 35%”. The “increase of ROS levels” value (PC-3 cells [3]; late time points (12 to 24 h), second value) was roughly 55%, the “effect on MMP versus control, single agent” value (PC-3 cells [4]) was “did not affect MMP at all” and the MT1/2 protein levels (MT1/2 [5]) was “no effect or a slight inhibition”. The MT1/2 protein levels (MT1/2 [6]) was “decreased expression of MT1/2” and the “phosphorylation of p38” value (p38) was “increased phosphorylation of p38”.
For O=S(=O)([O-])[O-].[Zn+2] [zinc, zinc sulfate], the IC50 (PC-3 cells [1]; 24 h) was 16.2 ± 0.9 µM, the “PC-3 cells that could survive” value (PC-3 cells [1]; zinc 30 μM, 24 h) was “less than 20%” and the “HPR-1 cells still alive” value (HPR-1 cells; zinc 30 μM, 24 h) was “around 90%”. The “response of HPR-1 cells to zinc” value (HPR-1 cells; zinc alone at doses of the six selected combinations, 24 h) was “no response”, the “apoptotic effect (cytochrome c, pro-caspase 3, PARP), single agent” value [2] was “lack of cell responses” and the “increase of ROS level” value (PC-3 cells [3]; PC-3, zinc alone, late time points (12 to 24 h)) was 40-50%. For the same molecule, the “effect on MMP versus control, single agent” value (PC-3 cells [4]) was “increase one fold”, the MT1/2 protein levels (MT1/2 [5]) was “significant induction” and the MT1/2 protein levels (MT1/2 [6]) was “induce expression of MT1/2 significantly”. The “phosphorylation of p38” value (p38) was “increased phosphorylation of p38”.
With CC(=O)N[C@@H](CS)C(=O)O [NAC, N-Acetyl Cysteine] the “effect on growth inhibitory effect of zinc, SFN and their combination” value (PC-3 cells [1]) was “concordantly abolished”, the “effect on ROS production induced by zinc, SFN or zinc/SFN combination” value (PC-3 cells [3]) was “significantly inhibited ROS production” and the “effect on surge of ROS induced by zinc/SFN combination” value (PC-3 cells [3]) was “completely abolished”. For the same molecule, the “effect on MMP alteration induced by zinc/SFN” value (PC-3 cells [4]) was “completely prevented”.
For N[C@@H](CCC(=O)N[C@@H](CS)C(=O)NCC(=O)O)C(=O)O [GSH, reduced glutathionein], the “effect on growth inhibitory effect of zinc, SFN and their combination” value (PC-3 cells [1]) was “concordantly abolished”, the “effect on ROS production induced by zinc, SFN or zinc/SFN combination” value (PC-3 cells [3]) was “significantly inhibited ROS production” and the “effect on surge of ROS induced by zinc/SFN combination” value (PC-3 cells [3]) was “completely abolished”. The “effect on MMP alteration induced by zinc/SFN” value (PC-3 cells [4]) was “completely prevented”.
